How the values were obtained:
[1] = biological target: T1, Human immunodeficiency virus type 1 reverse transcriptase (Human immunodeficiency virus 1, UniProt Q72547); assay: Inhibitory constant was determined in an HIV-1 reverse transcriptase assay in which the [3H]dTTP concentration was varied (i.e. 40, 20, 10, 6, and 4 uM
[2] = biological target: T1, Human immunodeficiency virus type 1 reverse transcriptase; assay: Compound concentration that causes 50 % inhibition of HIV-1 peptide-derived reverse transcriptase (RT)
[3] = biological target: T1, Human immunodeficiency virus type 1 reverse transcriptase; assay: Compound concentration that causes 50 % inhibition of HIV-1 peptide-derived reverse transcriptase (RT) obtained from HIV-1-infected H9 cell cultures

SMILES | Ki [1] | IC50 [2] | IC50 [3]
Cc1cn(C2CC(N=[N+]=[N-])C(COP(=O)(O)OP(=O)(O)C(F)(F)P(=O)(O)O)O2)c(=O)[nH]c1=O (centres undefined) | 2230 nM | 620 nM | 
Cc1cn(C2CC(N=[N+]=[N-])C(COP(=O)(O)OP(=O)(O)CP(=O)(O)O)O2)c(=O)[nH]c1=O (centres undefined) |  | 6950 nM | 
Cc1cn([C@H]2C[C@H](N=[N+]=[N-])[C@@H](CO[P@](=O)(O)O[P@](=O)(O)OP(=O)(O)O)O2)c(=O)[nH]c1=O [ZIDOVUDINE TRIPHOSPHATE] |  |  | 22 nM
